US11208400B2, “Substituted 6-(1H-pyrazol-1-yl)pyrimidin-4-amine derivatives and uses thereof” (Bayer Aktiengesellschaft, priority 2016, dated 2021)

Biological target: T1, human Npt2a (Homo sapiens, UniProt Q06495)
T1 construct: expressed in transfected cells
T1 sequence (Q06495 1-639): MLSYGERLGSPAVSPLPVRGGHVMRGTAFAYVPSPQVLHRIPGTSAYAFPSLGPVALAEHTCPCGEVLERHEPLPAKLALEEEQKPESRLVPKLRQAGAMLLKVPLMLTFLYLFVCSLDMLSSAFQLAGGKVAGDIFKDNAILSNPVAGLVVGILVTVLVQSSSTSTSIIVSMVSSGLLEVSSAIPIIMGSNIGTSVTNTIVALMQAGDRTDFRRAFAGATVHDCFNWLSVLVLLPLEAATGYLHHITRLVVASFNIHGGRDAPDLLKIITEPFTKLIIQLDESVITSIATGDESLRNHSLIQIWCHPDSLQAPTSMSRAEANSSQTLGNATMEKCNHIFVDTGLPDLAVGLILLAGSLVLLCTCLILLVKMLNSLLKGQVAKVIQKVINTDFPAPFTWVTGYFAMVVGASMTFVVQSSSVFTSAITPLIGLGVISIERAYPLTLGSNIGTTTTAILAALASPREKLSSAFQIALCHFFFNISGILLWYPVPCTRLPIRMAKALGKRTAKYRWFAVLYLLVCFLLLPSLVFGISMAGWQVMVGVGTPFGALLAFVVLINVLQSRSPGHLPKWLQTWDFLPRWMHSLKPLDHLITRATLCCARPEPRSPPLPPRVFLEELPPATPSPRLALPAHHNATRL
Assay: Npt2a activity cell based assay, membrane potential dye, CHO T-REx hNpt2a cells
Details: doxycycline-induced, depolarization by sodium phosphate influx, average or median values if tested more than once
Method in brief: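 Cells were doxycycline-induced CHO T-REx hNpt2a, dye-loaded and pretreated 5 min at RT with 1 nM–50 μM compound in Na-free pH 7.4 buffer. IC50 was fit to the post/pre-trigger fluorescence ratio.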

| Compound | IC50 [nM] |
| --- | --- |
| Cc1cc(C)n(-c2cc(Nc3c(C)c(-c4ccc(F)cc4)nn3CC(O)C3CC3)ncn2)n1 (single isomer, unassigned) [Example 371, 1-cyclopropyl-2-[5-{[6-(3,5-dimethyl-1H-pyrazol-1-yl)pyrimidin-4-yl]amino}-3-(4-fluorophenyl)-4-methyl-1H-pyrazol-1-yl]ethanol] | 240 |
| Cc1nn(-c2cc(Nc3c(C)c(-c4ccc(F)cc4)nn3CC3CC3)ncn2)c(C)c1C(O)C(F)(F)F (single isomer, unassigned) [Example 375, 1-[1-(6-{[1-(cyclopropylmethyl)-3-(4-fluorophenyl)-4-methyl-1H-pyrazol-5-yl]amino}pyrimidin-4-yl)-3,5-dimethyl-1H-pyrazol-4-yl]-2,2,2-trifluoroethanol] | 40 |
| Cc1nn(-c2cc(Nc3c(C)c(-c4ccc(F)cc4)nn3CC3CC3)ncn2)c(C)c1C(O)C(F)(F)F (single isomer, unassigned) [Example 376, 1-[1-(6-{[1-(cyclopropylmethyl)-3-(4-fluorophenyl)-4-methyl-1H-pyrazol-5-yl]amino}pyrimidin-4-yl)-3,5-dimethyl-1H-pyrazol-4-yl]-2,2,2-trifluoroethanol] | 8 |
| Cc1nn(-c2cc(Nc3c(C)c(-c4ccc(F)cc4)nn3CC3CC3)ncn2)c(C)c1C(O)C1CC1 (single isomer, unassigned) [Example 419, cyclopropyl[1-(6-{[1-(cyclopropylmethyl)-3-(4-fluorophenyl)-4-methyl-1H-pyrazol-5-yl]amino}pyrimidin-4-yl)-3,5-dimethyl-1H-pyrazol-4-yl]methanol] | 14 |
| Cc1nn(-c2cc(Nc3c(C)c(-c4ccc(F)cc4)nn3CC3CC3)ncn2)c(C)c1C(O)C1CC1 (single isomer, unassigned) [Example 420, cyclopropyl[1-(6-{[1-(cyclopropylmethyl)-3-(4-fluorophenyl)-4-methyl-1H-pyrazol-5-yl]amino}pyrimidin-4-yl)-3,5-dimethyl-1H-pyrazol-4-yl]methanol] | 24 |
| Cc1nn(-c2cc(Nc3c(C)c(-c4ccc(C(F)F)cc4)nn3CC3CC3)ncn2)c(C)c1C(O)C1CC1 (single isomer, unassigned) [Example 495, Cyclopropyl {1-[6-({1-(cyclopropylmethyl)-3-[4-(difluoromethyl)phenyl]-4-methyl-1H-pyrazol-5-yl}amino)pyrimidin-4-yl]-3,5-dimethyl-1H-pyrazol-4-yl}methanol] | 11 |
| Cc1nn(-c2cc(Nc3c(C)c(-c4ccc(C(F)F)cc4)nn3CC3CC3)ncn2)c(C)c1C(O)C1CC1 (single isomer, unassigned) [Example 496, Cyclopropyl {1-[6-({1-(cyclopropylmethyl)-3-[4-(difluoromethyl)phenyl]-4-methyl-1H-pyrazol-5-yl}amino)pyrimidin-4-yl]-3,5-dimethyl-1H-pyrazol-4-yl}methanol] | 230 |
| Cc1c(-c2ccc(F)cc2)nn(CC2CC2)c1Nc1cc(-n2nc3c(c2C)C(C)(O)CC3)ncn1 (single isomer, unassigned) [Example 515, 2-(6-{[1-(cyclopropylmethyl)-3-(4-fluorophenyl)-4-methyl-1H-pyrazol-5-yl]amino}pyrimidin-4-yl)-3,4-dimethyl-2,4,5,6-tetrahydrocyclopenta[c]pyrazol-4-ol] | 110 |
| Cc1c(-c2ccc(F)cc2)nn(CC2CC2)c1Nc1cc(-n2nc3c(c2C)C(C)(O)CC3)ncn1 (single isomer, unassigned) [Example 516, 2-(6-{[1-(cyclopropylmethyl)-3-(4-fluorophenyl)-4-methyl-1H-pyrazol-5-yl]amino}pyrimidin-4-yl)-3,4-dimethyl-2,4,5,6-tetrahydrocyclopenta[c]pyrazol-4-ol] | 31 |
| CCc1c(Nc2cc(-n3nc(C)cc3C)ncn2)nn(C)c1-c1ccc(F)cc1 [Example 1, 6-(3,5-dimethyl-1H-pyrazol-1-yl)-N-[4-ethyl-5-(4-fluorophenyl)-1-methyl-1H-pyrazol-3-yl]pyrimidin-4-amine] | 4.48 |
| CCc1c(-c2ccc(F)cc2)n[nH]c1Nc1cc(-n2nc(C)cc2C(F)F)ncn1 [Example 2, 6-[5-(difluoromethyl)-3-methyl-1H-pyrazol-1-yl]-N-[4-ethyl-3-(4-fluorophenyl)-1H-pyrazol-5-yl]pyrimidin-4-amine] | 12 |
| Cc1nn(-c2cc(Nc3[nH]nc(-c4ccc(F)cc4F)c3Cl)ncn2)c(C)c1Cl [Example 3, N-[4-chloro-3-(2,4-difluorophenyl)-1H-pyrazol-5-yl]-6-(4-chloro-3,5-dimethyl-1H-pyrazol-1-yl)pyrimidin-4-amine] | 13 |
| CCOC(=O)c1c(C)nn(-c2cc(Nc3n[nH]c(-c4ccc(F)cc4)c3CC)ncn2)c1C [Example 4, ethyl 1-(6-{[4-ethyl-5-(4-fluorophenyl)-1H-pyrazol-3-yl]amino}pyrimidin-4-yl)-3,5-dimethyl-1H-pyrazole-4-carboxylate] | 28.3 |
| CCc1c(Nc2cc(-n3nc(C)c(Cl)c3C)ncn2)n[nH]c1-c1ccc(F)cc1 [Example 5, 6-(4-chloro-3,5-dimethyl-1H-pyrazol-1-yl)-N-[4-ethyl-5-(4-fluorophenyl)-1H-pyrazol-3-yl]pyrimidin-4-amine] | 27.5 |
| Cc1cc(C)n(-c2cc(Nc3n[nH]c(-c4ccc(F)cc4F)c3Cl)ncn2)n1 [Example 6, N-[4-chloro-5-(2,4-difluorophenyl)-1H-pyrazol-3-yl]-6-(3,5-dimethyl-1H-pyrazol-1-yl)pyrimidin-4-amine] | 49 |
| Cc1cc(C)n(-c2cc(Nc3n[nH]c(-c4ccc(F)cc4)c3C3CC3)ncn2)n1 [Example 7, N-[4-cyclopropyl-5-(4-fluorophenyl)-1H-pyrazol-3-yl]-6-(3,5-dimethyl-1H-pyrazol-1-yl)pyrimidin-4-amine] | 36 |
| Cc1nn(-c2cc(Nc3[nH]nc(-c4ccc(F)cc4)c3C3CC3)ncn2)c(C)c1Cl [Example 8, 6-(4-chloro-3,5-dimethyl-1H-pyrazol-1-yl)-N-[4-cyclopropyl-3-(4-fluorophenyl)-1H-pyrazol-5-yl]pyrimidin-4-amine] | 38 |
| CCc1c(Nc2cc(-n3nc(C)cc3C)ncn2)n[nH]c1-c1ccc(F)cc1F [Example 9, N-[5-(2,4-difluorophenyl)-4-ethyl-1H-pyrazol-3-yl]-6-(3,5-dimethyl-1H-pyrazol-1-yl)pyrimidin-4-amine] | 40 |
| Cc1cc(C)n(-c2cc(Nc3[nH]nc(-c4ccccc4)c3C)ncn2)n1 [Example 10, 6-(3,5-dimethyl-1H-pyrazol-1-yl)-N-(4-methyl-3-phenyl-1H-pyrazol-5-yl)pyrimidin-4-amine] | 33.7 |
| Cc1nn(-c2cc(Nc3n[nH]c(-c4ccccc4)c3C)ncn2)c(C)c1Cl [Example 11, 6-(4-chloro-3,5-dimethyl-1H-pyrazol-1-yl)-N-(4-methyl-5-phenyl-1H-pyrazol-3-yl)pyrimidin-4-amine] | 50.3 |
| CCc1c(-c2ccc(F)cc2)nn(C)c1Nc1cc(-n2nc(C)cc2C)ncn1 [Example 12, 6-(3,5-dimethyl-1H-pyrazol-1-yl)-N-[4-ethyl-3-(4-fluorophenyl)-1-methyl-1H-pyrazol-5-yl]pyrimidin-4-amine] | 50 |
| CCc1c(-c2ccc(F)cc2)n[nH]c1Nc1cc(-n2nc(C)cc2C)ncn1 [Example 13, 6-(3,5-dimethyl-1H-pyrazol-1-yl)-N-[4-ethyl-3-(4-fluorophenyl)-1H-pyrazol-5-yl]pyrimidin-4-amine] | 61.9 |
